Test results published in patent US20220401406A1, “TOPICAL FORMULATIONS AND INSTILLATES, KITS, AND METHODS FOR TREATING INT[…], AND USES THEREOF” (VinSan Therapeutics Inc., priority 2019, published 2022).

Experiments:
integumentary wound = assay: General statements on tests of topical formulations on integumentary wounds; settings: in vivo
Recalcitrant wounds = assay: Further trials of topical formulations F21 to F30, nine patients; assay type: in vivo, human; settings: use of the component in the formulations compared to no use of it
Procedure: Topical formulations were prepared in aliquots using the following proportions—in F21, F22, and F27 to F30, the specified amounts of CBD and THCa were supplied in 2 ml of total oil volume; in F23 and F24, the specified amount of THCa was supplied in 2 ml of total oil volume and the specified amount of CBD was supplied in 4 ml of total oil volume; in F25 and F26, the specified amount of CBD was supplied in 3 ml of total oil volume:
Recalcitrant wounds of nine were treated with Formulations F21 to F30. Formulations F21, F23, F25, F27 and F29, compounded in a mixture of hyaluronic acid and aloe vera gel, were applied to wound beds. Formulations F22, F24, F26, F28 and F30, compounded in liposomal base, were applied to periwound areas. […]

| Compound | wound healing effects compared with decarboxylated tetrahydrocannabinol (THC) (integumentary wound) | more rapid closure of wounds (cm^2/day), average (Recalcitrant wounds) |
| --- | --- | --- |
| CCCCCc1cc2c(c(O)c1C(=O)O)[C@@H]1C=C(C)CC[C@H]1C(C)(C)O2 [THCa, tetrahydrocannabinolic acid] | better wound healing effects | 5.3 times |
| C=CC(C)(O)CCC=C(C)C (stereo not drawn) [linalool] |  | 3.8 times |
